In test [1] the target is T1, adenosine deaminase obtained from calf intestine (Bos taurus, UniProt P56658).
T1 construct: purchased
T1 sequence (P56658 1-363): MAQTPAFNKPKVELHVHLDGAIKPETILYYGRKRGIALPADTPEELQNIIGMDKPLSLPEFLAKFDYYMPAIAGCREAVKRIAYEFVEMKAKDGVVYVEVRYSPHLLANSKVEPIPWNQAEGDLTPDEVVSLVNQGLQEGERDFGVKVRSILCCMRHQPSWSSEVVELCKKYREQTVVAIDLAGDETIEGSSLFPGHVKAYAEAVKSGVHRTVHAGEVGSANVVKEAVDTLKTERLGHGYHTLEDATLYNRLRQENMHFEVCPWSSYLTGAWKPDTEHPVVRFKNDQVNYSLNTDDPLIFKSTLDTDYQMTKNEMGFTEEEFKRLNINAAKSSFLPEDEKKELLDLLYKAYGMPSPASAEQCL
Description: Inhibition of the action of adenosine deaminase in vitro (decrease in absorbance at 265 nm). The settings on record: pH 7.4, 30° C. The format is biochemical. On the procedure: This test was performed with adenosine deaminase obtained from calf intestine.
(§1) The experimental procedure described hereunder was used:
In the absorption cell the following solutions were introduced:
2.7 ml of a 0.1 molar phosphate buffer solution (pH=7.4)
0.3 ml of a 10^-4 or 5.10^-4 molar solution of adenosine in the phosphate buffer solution (final concentration in adenosine: 10^-5 or 5.10^-5 mol) 0.01 ml of a 3.10^-3 molar ethanolic solution of the compound to be studied (about 10 milliunits)
The contents of the absorption cell were allowed to incubate for 2 minutes and then the enzymatic reaction was started by adding 0.03 ml of a commercial adenosine deaminase solution having a known concentration in enzyme. The reaction was performed at 30° C. and followed by spectrophotometric recording of the decrease in absorbance at 265 nm due to the transformation of adenosine into inosine by means of adenosine deaminase. This enzymatic reaction can be represented by the following equation: [formula]
The same measurements were performed with a control solution containing all the ingredients referred to above except the compound being studied. Curves were then plotted representing the decrease in absorbance in comparison with time obtained on the one hand with the solution containing the inhibitor and on the other with the control solution.
The slope of both curves was measured and expressed in the number of mols of inosine formed in one minute. After that, the percent of inhibition of the activity of adenosine deaminase provoked by a compound of the invention was calculated.

In test [2] the target is T2, xanthine oxidase found in milk (Bos taurus, UniProt P80457).
T2 construct: purchased
T2 sequence (P80457 whole entry): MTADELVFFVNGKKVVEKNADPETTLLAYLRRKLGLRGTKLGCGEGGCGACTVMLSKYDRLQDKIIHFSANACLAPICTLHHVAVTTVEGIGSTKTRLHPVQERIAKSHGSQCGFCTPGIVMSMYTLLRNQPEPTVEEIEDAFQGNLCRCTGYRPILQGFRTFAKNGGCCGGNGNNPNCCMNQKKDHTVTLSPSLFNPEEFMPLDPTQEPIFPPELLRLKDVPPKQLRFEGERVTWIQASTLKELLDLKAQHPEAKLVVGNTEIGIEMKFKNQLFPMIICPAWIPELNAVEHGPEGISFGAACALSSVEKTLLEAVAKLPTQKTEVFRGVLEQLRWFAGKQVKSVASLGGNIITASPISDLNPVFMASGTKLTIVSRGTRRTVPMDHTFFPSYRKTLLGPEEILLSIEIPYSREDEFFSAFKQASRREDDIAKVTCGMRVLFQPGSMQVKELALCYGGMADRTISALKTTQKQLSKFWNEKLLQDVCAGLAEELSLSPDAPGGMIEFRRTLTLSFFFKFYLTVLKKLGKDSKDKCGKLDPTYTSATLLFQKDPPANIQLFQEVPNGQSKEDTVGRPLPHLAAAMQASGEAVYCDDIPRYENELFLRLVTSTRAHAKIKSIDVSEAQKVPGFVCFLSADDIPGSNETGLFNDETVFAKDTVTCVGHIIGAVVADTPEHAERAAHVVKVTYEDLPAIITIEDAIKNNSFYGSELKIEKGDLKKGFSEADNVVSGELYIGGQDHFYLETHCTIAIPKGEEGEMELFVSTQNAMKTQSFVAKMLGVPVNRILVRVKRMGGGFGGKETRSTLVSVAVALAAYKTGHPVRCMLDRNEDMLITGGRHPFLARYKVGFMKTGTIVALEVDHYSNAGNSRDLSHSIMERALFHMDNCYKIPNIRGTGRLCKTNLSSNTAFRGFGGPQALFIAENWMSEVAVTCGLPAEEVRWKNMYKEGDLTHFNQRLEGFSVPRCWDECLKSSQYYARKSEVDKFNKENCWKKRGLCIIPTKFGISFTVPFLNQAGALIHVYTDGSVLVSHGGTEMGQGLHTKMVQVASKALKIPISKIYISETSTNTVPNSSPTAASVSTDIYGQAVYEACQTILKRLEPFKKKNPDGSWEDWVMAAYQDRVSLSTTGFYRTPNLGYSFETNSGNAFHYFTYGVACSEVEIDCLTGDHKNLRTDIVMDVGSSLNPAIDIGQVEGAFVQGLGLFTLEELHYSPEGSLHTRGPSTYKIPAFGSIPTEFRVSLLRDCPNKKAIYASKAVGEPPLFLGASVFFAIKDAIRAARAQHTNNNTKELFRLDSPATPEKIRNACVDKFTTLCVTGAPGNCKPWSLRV
Nature of the test: Inhibition of the action of xanthine oxidase in vitro (U.V. spectrophotometry, formation of uric acid from hypoxanthine). The format is biochemical. The following applies: compound at 10^-5 M; hypoxanthine substrate, pH 7.4, 37° C. Here is the method:
This trial was performed with xanthine oxidase found in milk. The activity of the enzymatic preparation was measured by following the formation of uric acid starting from hypoxanthine in the presence of oxygen and of a phosphate buffer solution.
as §1
In the absorption cell, the following solutions were introduced:
1.5 ml of a 0.1 molar phosphate buffer solution (pH=7.4) saturated with oxygen.
0.3 ml of a 1 m molar solution of ethylene diamine tetraacetate.
0.01 ml of a commercial xanthine oxidase solution having a known concentration in enzyme.
0.01 ml of a 3.10^-3 molar ethanolic solution of the compound to be tested.
The contents of the absorption cell were allowed to incubate for 2 minutes and then the enzymatic reaction was started by adding 0.3 ml of a 10^-3 molar solution of hypoxanthine to the absorption cell. The reaction was followed by spectrophotometric recording of the oxidation rate of hypoxanthine at 293 nm and at 37° C. The optical density was automatically registered. The same measurements were performed with a control solution containing all the ingredients referred to above except the compound being tested.
In this way, a curve representing the variation in optical density in comparison with time was obtained with the solution containing the inhibitor on the one hand and devoid of inhibitor on the other. The slope of both curves was measured and expressed in the number of mols of uric acid formed in one minute. Thus, it was possible to compare the values obtained and calculate, in percent, the inhibition of the activity of xanthine oxidase provoked by a compound of the invention.

Each structure is given as a SMILES string.

`CCc1oc2ccccc2c1C(=O)c1cc(Br)c(O)c(Br)c1` [2-ethyl-3-(3,5-dibromo-4-hydroxy-benzoyl)-benzofuran, reference compound]: the “Inhibition of the action of adenosine deaminase in vitro (in %) At 10^-5 M adenosine” value (“Inhibition … (in %) At 10^-5 M adenosine” for short) in test [1] is “totally inactive”.

`CCc1oc2ccccc2c1C(=O)c1cc(I)c(O)c(I)c1` [2-ethyl-3-(3,5-diiodo-4-hydroxy-benzoyl)-benzofuran, reference compound]: in test [1], the “Inhibition … (in %) At 10^-5 M adenosine” value was “totally inactive”.

Regarding `CCc1oc2ccccc2c1C(=O)c1ccc(O)cc1` [2-ethyl-3-(4-hydroxy-benzoyl)-benzofuran, reference compound], the “Inhibition … (in %) At 10^-5 M adenosine” value in test [1] is on record as 18%.

With `CC(C)c1oc2ccccc2c1C(=O)c1cc(Br)c(O)c(Br)c1` [2-isopropyl-3-(3,5-dibromo-4-hydroxy-benzoyl)-benzofuran, reference compound], the “Inhibition … (in %) At 10^-5 M adenosine” value in test [1] was “totally inactive”.

In the case of `CCCCc1oc2ccccc2c1C(=O)c1cc(Br)c(O)c(Br)c1` [2-n-butyl-3-(3,5-dibromo-4-hydroxy-benzoyl)-benzofuran, reference compound], the “Inhibition … (in %) At 10^-5 M adenosine” value in test [1] is “totally inactive”.

For `O=C(c1cc(Br)c(O)c(Br)c1)c1c(-c2ccccc2)oc2ccccc12` [2-phenyl-3-(3,5-dibromo-4-hydroxy-benzoyl)-benzofuran, reference compound], in test [1], the “Inhibition … (in %) At 10^-5 M adenosine” value came to 15%.

Take `O=C(c1ccc(O)cc1)c1c(-c2cccc(Br)c2)c(Cl)c2ccccn12` [3-Bromo-phenyl Cl H H, 1-Chloro-2-(3-bromo-phenyl)-3-(4-hydroxy-benzoyl)indolizine]: in test [1], the “Inhibition of the action of adenosine deaminase in vitro (in %) At 5.10^-5 M adenosine” value (from here on “Inhibition … (in %) At 5.10^-5 M adenosine”) was 55%.

For orientation: inhibition means the relative decrease from the control value, in per cent. A low value points to a response near the control. With `O=C(c1ccc(O)c(Cl)c1)c1c(-c2cccc(Br)c2)cc2ccccn12` [3-Bromo-phenyl H H Cl, 2-(3-Bromo-phenyl)-3-(3-chloro-4-hydroxy-benzoyl)-indolizine], testing at 10 µM in test [2] gave an inhibition of 23%.

`O=C(c1cc(Br)c(O)c(Br)c1)c1c(-c2ccc(Br)cc2)cc2ccccn12` [4-Bromo-phenyl H Br Br, 2-(4-Bromo-phenyl)-3-(3,5-dibromo-4-hydroxy-benzoyl)-indolizine]: testing at 10 µM in test [2] gave an inhibition of 23%.

Take `O=C(c1ccc(O)c(Br)c1)c1c(-c2ccc(Br)cc2)cc2ccccn12` [4-Bromo-phenyl H H Br, 2-(4-Bromo-phenyl)-3-(3-bromo-4-hydroxy-benzoyl)-indolizine]: in test [2], at 10 µM the inhibition was 22%.

With `O=C(c1ccc(O)c(Br)c1)c1c(-c2ccc(F)cc2)cc2ccccn12` [4-Fluoro-phenyl H H Br, 2-(4-Fluoro-phenyl)-3-(3-bromo-4-hydroxy-benzoyl)-indolizine], the “Inhibition … (in %) At 10^-5 M adenosine” value in test [1] stood at 60%.

With `COc1cc(C(=O)c2c(-c3ccc(F)cc3)cc3ccccn23)ccc1O` [4-Fluoro-phenyl H H OCH3, 2-(4-Fluoro-phenyl)-3-(3-methoxy-4-hydroxy-benzoyl)-indolizine], the “Inhibition … (in %) At 5.10^-5 M adenosine” value in test [1] is reported as 39%.

`COc1ccc(-c2c(Br)c3ccccn3c2C(=O)c2ccc(O)c(Br)c2)cc1` [4-Methoxy-phenyl Br Br H, 1-Bromo-2-(4-methoxy-phenyl)-3-(3-bromo-4-hydroxy-benzoyl)-indolizine]: the inhibition at 10 µM in test [2] was 80%.

The compound `Cc1ccc(-c2c(Br)c3ccccn3c2C(=O)c2ccc(O)cc2)cc1` [4-Methyl-phenyl Br H H, 1-Bromo-2-(4-methyl-phenyl)-3-(4-hydroxy-benzoyl)-indolizine] showed an inhibition at 10 µM in test [2] of 48%.

`CCc1c(Br)c2ccccn2c1C(=O)c1ccc(O)c(Br)c1` [Ethyl Br Br H, 1-Bromo-2-ethyl-3-(3-bromo-4-hydroxy-benzoyl)-indolizine]: in test [2], the inhibition at 10 µM was 93%.

On to `CCc1c(Cl)c2ccccn2c1C(=O)c1cc(Br)c(O)c(Br)c1` [Ethyl Cl Br Br, 1-Chloro-2-ethyl-3-(3,5-dibromo-4-hydroxy-benzoyl)-indolizine], for which, in test [2], the inhibition at 10 µM came out at 64%.

Compound `CCc1c(Cl)c2ccccn2c1C(=O)c1ccc(O)c(Br)c1` [Ethyl Cl Br H, 1-Chloro-2-ethyl-3-(3-bromo-4-hydroxy-benzoyl)-indolizine] had an inhibition at 10 µM in test [2] of 34%.

Turning to `CC(C)c1c(Br)c2ccccn2c1C(=O)c1cc(Br)c(O)c(Br)c1` [Isopropyl Br Br Br, 1-Bromo-2-isopropyl-3-(3,5-dibromo-4-hydroxy-benzoyl)-indolizine], the “Inhibition … (in %) At 10^-5 M adenosine” value in test [1] is 57%.

As for `CC(C)c1c(Br)c2ccccn2c1C(=O)c1ccc(O)c(Br)c1` [Isopropyl Br Br H, 1-Bromo-2-isopropyl-3-(3-bromo-4-hydroxy-benzoyl)-indolizine], in test [1], the “Inhibition … (in %) At 5.10^-5 M adenosine” value is on record as 54% and the “Inhibition … (in %) At 10^-5 M adenosine” value is on record as 75%.

Take `O=C(c1ccc(O)c(Cl)c1)c1c(-c2ccccc2)c(Br)c2ccccn12` [Phenyl Br Cl H, 1-Bromo-2-phenyl-3-(3-chloro-4-hydroxy-benzoyl)-indolizine]: in test [1], the “Inhibition … (in %) At 5.10^-5 M adenosine” value came to 86%.

With `O=C(c1ccc(O)cc1)c1c(-c2ccccc2)c(Br)c2ccccn12` [Phenyl Br H H, 1-Bromo-2-phenyl-3-(4-hydroxy-benzoyl)-indolizine], the “Inhibition … (in %) At 5.10^-5 M adenosine” value in test [1] came out at 52%.

As to `O=C(c1cc(Cl)c(O)c(Cl)c1)c1c(-c2ccccc2)c(Cl)c2ccccn12` [Phenyl Cl Cl Cl, 1-Chloro-2-phenyl-3-(3,5-dichloro-4-hydroxy-benzoyl)-indolizine], the “Inhibition … (in %) At 5.10^-5 M adenosine” value in test [1] was found to be 57%.

With `O=C(c1ccc(O)c(Br)c1)c1c(-c2ccccc2)cc2ccccn12` [Phenyl H H Br, 2-Phenyl-3-(3-bromo-4-hydroxy-benzoyl)-indolizine], the “Inhibition … (in %) At 10^-5 M adenosine” value in test [1] was determined as 78%.

Take `O=C(c1ccc(O)c(Cl)c1)c1c(-c2ccccc2)cc2ccccn12` [Phenyl H H Cl, 2-Phenyl-3-(3-chloro-4-hydroxy-benzoyl)-indolizine]: the “Inhibition … (in %) At 10^-5 M adenosine” value in test [1] is listed as 58%.

Regarding `COc1c(-c2ccccc2)c(C(=O)c2ccc(O)c(Br)c2)n2ccccc12` [Phenyl OCH3 Br H, 1-Methoxy-2-phenyl-3-(3-bromo-4-hydroxy-benzoyl)-indolizine], in test [1], the “Inhibition … (in %) At 5.10^-5 M adenosine” value was found to be 91%.

For `COc1c(-c2ccccc2)c(C(=O)c2ccc(O)c(Cl)c2)n2ccccc12` [Phenyl OCH3 Cl H, 1-Methoxy-2-phenyl-3-(3-chloro-4-hydroxy-benzoyl)-indolizine], the “Inhibition … (in %) At 5.10^-5 M adenosine” value in test [1] stood at 82%.

Turning to `CCCCc1c(Br)c2ccccn2c1C(=O)c1ccc(O)cc1` [n-Butyl Br H H, 1-Bromo-2-n-butyl-3-(4-hydroxy-benzoyl)-indolizine], the “Inhibition … (in %) At 10^-5 M adenosine” value in test [1] stood at 45%.

For `CCCCc1cc2ccccn2c1C(=O)c1ccc(O)c(Br)c1` [n-Butyl H H Br, 2-n-Butyl-3-(3-bromo-4-hydroxy-benzoyl)-indolizine], in test [1], the “Inhibition … (in %) At 10^-5 M adenosine” value was determined as 60%.

As for `CCCc1cc2ccccn2c1C(=O)c1ccc(O)c(Cl)c1` [n-Propyl H H Cl, 2-n-Propyl-3-(3-chloro-4-hydroxy-benzoyl)-indolizine], the “Inhibition … (in %) At 10^-5 M adenosine” value in test [1] came out at 42%.
